Measured values as given in PubChem BioAssay (NCI).
Several values for one entry are separate records, joined by “and”; a condition that tells them apart may be missing. Equal entries are not always repeated.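 Five compound concentrations were applied to cells in 96-well plates for 48 hours; endpoints were derived by simple linear interpolation of the resulting dose-response curve. At the GI50, growth is halved. Definition used: TGI = concentration required for complete inhibition of growth.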

Assays:
Test in all cases: DTP human tumour cell line panel, 48 h
PC-3 prostate = system: PC-3 prostate
ACHN renal = system: ACHN renal
A549 NSCLC = system: A549 NSCLC
SK-MEL-5 melanoma = system: SK-MEL-5 melanoma
NCI-H522 lung = system: NCI-H522 lung
UO-31 renal = system: UO-31 renal
MCF7 breast = system: MCF7 breast
OVCAR-3 ovarian = system: OVCAR-3 ovarian
A498 renal = system: A498 renal
COLO 205 colon = system: COLO 205 colon

Row | Compound | GI50 (PC-3 prostate) | TGI (PC-3 prostate) | GI50 (ACHN renal) | TGI (ACHN renal) | GI50 (A549 NSCLC) | TGI (A549 NSCLC) | GI50 (SK-MEL-5 melanoma) | TGI (SK-MEL-5 melanoma) | GI50 (NCI-H522 lung) | TGI (NCI-H522 lung) | GI50 (UO-31 renal) | TGI (UO-31 renal) | GI50 (MCF7 breast) | TGI (MCF7 breast) | GI50 (OVCAR-3 ovarian) | TGI (OVCAR-3 ovarian) | TGI (A498 renal) | TGI (COLO 205 colon) | GI50 (COLO 205 colon) | GI50 (A498 renal)
1 | CCCCCCCCCC(=O)Oc1ccc(/C(=C(/C)c2ccccc2)c2ccc(OCCN3CCCC3)cc2)cc1 | 8.28 µM | 15.7 µM | 8.16 µM | 15.5 µM | 9.35 µM | 17.7 µM | 8130 nM | 14.9 µM | 9.36 µM | 18.4 µM | 6.72 µM | 14.2 µM | 5 nM | 10.3 µM | 8.18 µM | 16.1 µM | – | – | – | –
2 | N#Cc1sc2nc3c(c(-c4ccccc4)c2c1N)CCCC3 | – | – | – | > 100 µM | – | > 100 µM | – | – | – | > 100 µM | – | > 100 µM | – | – | – | – | > 100 µM | – | – | –
3 | CN(C)NC(=O)NC12CC3CC(CC(C3)C1)C2 | – | – | – | > 100 µM | – | > 100 µM | – | > 100 µM | – | > 100 µM | – | > 100 µM | – | – | – | – | > 100 µM | > 100 µM | – | –
4 | CC(C)(C)n1cc(-c2ccnc(NCCCNS(=O)(=O)c3cccc4ccccc34)c2)c(-c2cccc(O)c2)n1 | 1.85 µM | 5.57 µM | 2.7 µM | 7.25 µM | 2.29 µM | 5.99 µM | 1510 nM | 2.85 µM | – | – | 2.26 µM | 7.97 µM | 1910 nM | 4.06 µM | 2.06 µM | 4.22 µM | 5.1 µM | 3.72 µM | 1890 nM | 1370 nM
5 | COc1cc([C@@H]2c3cc4c(cc3[C@@H](OC3OC5COC(C)OC5C(O)C3O)[C@H]3COC(=O)[C@H]23)OCO4)cc(OC)c1O (stereo partly drawn) | 12.9 µM and 7.68 µM | – | – | – | – | 61.4 µM and 108 µM | – | 47.2 µM and 10.8 µM and 32.5 µM | – | – | – | 110 µM and 89.7 µM and 175 µM | – | 103 µM and 500 µM and 432 µM | – | – | 59.9 µM and 12 µM and 55.4 µM | – | – | –
6 | Cc1nc2ccccc2c(=O)n1/N=C(\N=Nc1cc(Cl)ccc1Cl)c1ccc(N(C)C)cc1 | – | – | – | > 100 µM | – | > 100 µM | – | > 100 µM | – | 92.3 µM | – | > 100 µM | – | – | – | – | > 100 µM | > 100 µM | – | –
7 | COc1cc2c3c(c4cc(OC)c(OC)cc4c2cc1OC)CN1CCC[C@H]1C3 | – | – | – | 2.37 µM and 0.393 µM | – | 0.142 µM | 60.7 nM and < 10 nM | – | – | 1.01 µM and 0.54 µM | – | 1.66 µM and 1 µM | – | 0.127 µM and 0.318 µM | – | 0.379 µM and 1.15 µM | 0.0368 µM | – | 59.2 nM and < 10 nM | –
8 | CCOC(=O)C(=O)CC(=O)C(Br)C(Br)c1ccc(Cl)cc1 (stereo not drawn) | – | – | – | > 100 µM | – | > 100 µM | – | > 100 µM | – | 45.7 µM | – | > 100 µM | – | – | – | 87.8 µM | – | 53.5 µM | – | –
9 | CSCSCC(CO)NC(=O)/C=C/c1c(C)[nH]c(=O)[nH]c1=O (stereo not drawn) | – | – | – | > 100 µM | – | > 100 µM | – | > 100 µM | – | – | – | > 100 µM | – | – | – | > 100 µM | > 100 µM | – | – | –
10 | NN=C1/C(=C\c2ccccc2)CCC/C1=C/c1ccccc1 | – | – | – | > 100 µM | – | > 100 µM | – | – | – | 36.1 µM | – | 94.2 µM | – | – | – | > 100 µM | 95.8 µM | 71.4 µM | – | –
11 | CC(C)(c1ccc(C=O)o1)c1ccc(C(C)(C)c2ccc(C=O)o2)o1 | – | – | – | > 100 µM | – | > 100 µM | – | – | – | > 100 µM | – | – | – | – | – | – | > 100 µM | > 100 µM | – | –
